Experimental data published in patent publication US9115147B2, “Tricyclic derivatives and their pharmaceutical use and compositions” (Cephalon, Inc., priority 2009, dated 2015).
Like-named read-outs stand apart in the source and are kept apart here.

Biological target: T1, human 5-HT6 receptor (Homo sapiens, UniProt P50406)
T1 construct: host or cells: CHO-K1 cells, stably transfected; membranes prepared in house
Test: Human 5-HT6 Receptor Binding Assay ([3H]LSD, scintillation beads)
Details: membranes of CHO-K1 cells with recombinant human 5-HT6 receptor, 4 nM [3H]LSD
Protocol: Human 5-HT6 Receptor Binding Assay
Membranes were prepared from CHO-K1 cells stably transfected with the human 5-HT6 receptor (Euroscreen; ES-316-C). The cells were grown in Gibco Advanced DMEM-F12 (Cat#12634010) containing 2% dialyzed FBS (Hyclone Cat#SH30079.03). The cells were harvested in phosphate buffered saline (PBS) containing 0.1 mM EDTA and pelleted by centrifugation (1000×g), the supernatant was discarded and the pellets were stored at −80° C. prior to membrane preparation. Membranes were prepared as previously described (J Bio Chem. 1992, 267 (14) 9844-51). Briefly, frozen cell pellet was resuspended in a lysis buffer containing 5 mM Tris-HCl (pH 7.5), 5 mM EDTA and 1 complete EDTA-free protease inhibitor tablet (Roche Applied Science, Indianapolis, Ind.) per 50 mL buffer, and homogenized with a tissue homogenizer. The cell lysate was then centrifuged at 40,000×g for 30 min at 4° C. to collect the membranes. The membrane pellets were washed in membrane buffer (50 mM Tris-HCl (pH 7.5), 0.6 mM EDTA, 5 mM MgCl2, 1 complete EDTA-free protease inhibitor tablet per 50 mL buffer) using a tissue homogenizer. The membranes were centrifuged at 40,000×g for 30 min at 4° C. and the pellets were resuspended in membrane buffer containing 250 mM sucrose, and protein concentration was determined using the Coomassie Plus kit (Pierce Biotechnology, Rockford, Ill.).
Membranes prepared from cells expressing recombinant human 5-HT6 receptor (h5-HT6) were resuspended in assay buffer containing 50 mM Tris HCl, (pH7.4), 4 mM CaCl2, 10 μg/mL saponin, and 0.1% (w/v) ascorbic acid. Membranes were preincubated using 1.75 μg membrane protein and 0.25 mg FlashBlue scintillation beads (PerkinElmer catalogue #FB001) per well at 4° C. for 30 min. […] Test compounds or assay controls for total and non-specific binding were diluted in DMSO as 100× solutions and serially diluted by half log concentrations on a Perkin Elmer JANUS Automated Workstation. Serotonin (10 μM final concentration) was used to determine non-specific binding in the assay. Plates were read using the Microbeta Trilux 1450 LSC and luminescence counter. Data were analyzed by nonlinear […] using the dose-response equation (variable slope) to calculate IC50 in XLfit4 (ID Business Solutions Inc.): y=(Bottom+((Top−Bottom)/(1+((IC50/x)^Hill slope))))
Ki value was then calculated according to the Cheng-Prusoff method using the equation below (Cheng and Prusoff, 1973): Ki, app=IC50/(1+([radioligand]/Kd))

[1] = Cheng-Prusoff, read-out: Human 5-HT6 Ki app
[2] = Human 5-HT6 Ki (nM), actual data
[3] = Human 5-HT6 Ki app (nM), Cheng-Prusoff

T1 sequence (P50406 whole entry): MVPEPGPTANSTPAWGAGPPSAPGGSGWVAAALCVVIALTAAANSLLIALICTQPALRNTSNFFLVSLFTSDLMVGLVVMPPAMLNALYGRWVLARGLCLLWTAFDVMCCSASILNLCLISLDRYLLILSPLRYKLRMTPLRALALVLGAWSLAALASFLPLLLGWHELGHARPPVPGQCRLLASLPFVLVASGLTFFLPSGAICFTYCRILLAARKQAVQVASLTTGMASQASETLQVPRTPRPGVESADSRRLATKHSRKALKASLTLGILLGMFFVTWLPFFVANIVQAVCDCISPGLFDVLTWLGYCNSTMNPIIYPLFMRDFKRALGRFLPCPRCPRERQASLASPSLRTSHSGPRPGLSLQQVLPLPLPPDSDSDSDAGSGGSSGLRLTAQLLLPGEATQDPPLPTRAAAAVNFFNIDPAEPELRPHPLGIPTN

| SMILES | Ki [1] | also measured |
| --- | --- | --- |
| [O-][S+](c1ccccc1)c1ccc2c(c1)OCC1NCCC21 (racemic) [Example 26, 7-(Phenylsulfinyl)-1,2,3,3a,4,9b-hexahydrochromeno[3,4-b]pyrrole] | > 1000 nM | – |
| COc1cncc(S(=O)(=O)c2ccc3c(c2)OCC2NCCC32)c1 (racemic) [Example 110, 7-[(5-methoxypyridin-3-yl)sulfonyl]-1,2,3,3a,4,9b-hexahydrochromeno[3,4-b]pyrrole] | – | Ki [2]: 98.4 nM; Ki [3]: < 500 nM |
| O=S(=O)(c1cncc(Cl)c1)c1ccc2c(c1)OCC1NCCC21 (racemic) [Example 111, 7-[(5-chloropyridin-3-yl)sulfonyl]-1,2,3,3a,4,9b-hexahydrochromeno[3,4-b]pyrrole] | – | Ki [3]: < 500 nM |
| O=S(=O)(c1ccc(F)cc1)c1ccc2c(c1)OCC1NCCC21 (single isomer, unassigned) [Example 13, 7-[(4-fluorophenyl)sulfonyl]-1,2,3,3a,4,9b-hexahydrochromeno[3,4-b]pyrrole] | < 500 nM | – |
| O=S(=O)(c1cc(F)cc(F)c1)c1ccc2c(c1)OCC1NCCC21 (single isomer, unassigned) [Example 14, 7-[(3,5-difluorophenyl)sulfonyl]-1,2,3,3a,4,9b-hexahydrochromeno[3,4-b]pyrrole] | < 500 nM | – |
| O=S(=O)(c1cc(F)cc(Cl)c1)c1ccc2c(c1)OCC1NCCC21 (single isomer, unassigned) [Example 15, 7-[(3-chloro-5-fluorophenyl)sulfonyl]-1,2,3,3a,4,9b-hexahydrochromeno[3,4-b]pyrrole] | < 500 nM | – |
| O=S(=O)(c1cccc(OC(F)(F)F)c1)c1ccc2c(c1)OCC1NCCC21 (single isomer, unassigned) [Example 16, 7-{[3-(trifluoromethoxy)phenyl]sulfonyl}-1,2,3,3a,4,9b-hexahydrochromeno[3,4-b]pyrrole] | < 500 nM | – |
| O=S(=O)(c1cccc(C(F)(F)F)c1)c1ccc2c(c1)OCC1NCCC21 (single isomer, unassigned) [Example 17, 7-{[3-(trifluoromethyl)phenyl]sulfonyl}-1,2,3,3a,4,9b-hexahydrochromeno[3,4-b]pyrrole] | < 500 nM | – |
| CC(C)Oc1cccc(S(=O)(=O)c2ccc3c(c2)OCC2NCCC32)c1 (single isomer, unassigned) [Example 18, 7-{[3-(propan-2-yloxy)phenyl]sulfonyl}-1,2,3,3a,4,9b-hexahydrochromeno[3,4-b]pyrrole] | < 500 nM | – |
| O=S(=O)(c1ccc2c(c1)OCC1NCCC21)c1cccc2ccccc12 (single isomer, unassigned) [Example 19, 7-(naphthalen-1-ylsulfonyl)-1,2,3,3a,4,9b-hexahydrochromeno[3,4-b]pyrrole] | < 500 nM | – |
| O=S(=O)(c1ccc2c(c1)OCC1NCCC21)c1cccc2ccccc12 (single isomer, unassigned) [Example 20, 7-(naphthalen-1-ylsulfonyl)-1,2,3,3a,4,9b-hexahydrochromeno[3,4-b]pyrrole] | < 500 nM | – |
| Cc1cccc(Sc2ccc3c(c2)OCC2NCCC32)n1 (single isomer, unassigned) [Example 21, 7-[(6-methylpyridin-2-yl)sulfanyl]-1,2,3,3a,4,9b-hexahydrochromeno[3,4-b]pyrrole] | > 1000 nM | – |
| Cc1cccc([S+]([O-])c2ccc3c(c2)OCC2NCCC32)n1 (single isomer, unassigned) [Example 22, 7-[(6-methylpyridin-2-yl)sulfinyl]-1,2,3,3a,4,9b-hexahydrochromeno[3,4-b]pyrrole] | – | Ki [2]: 51.5 nM; Ki [3]: < 500 nM |

Continued, in another order:

| Ki [1] | SMILES | also measured |
| --- | --- | --- |
| < 500 nM | [O-][S+](c1ccccc1)c1ccc2c(c1)OCC1NCCC21 (racemic) [Example 25, 7-(Phenylsulfinyl)-1,2,3,3a,4,9b-hexahydrochromeno[3,4-b]pyrrole] | – |
| < 500 nM | O=S(=O)(c1ccccc1)c1ccc2c(c1)OCC1NCCC21 (racemic) [Example 104, 7-(phenylsulfonyl)-1,2,3,3a,4,9b-hexahydrochromeno[3,4-b]pyrrole] | Ki (actual data, read-out: Human 5-HT6 Ki): 2.5 nM |
| < 500 nM | O=S(=O)(c1cc(F)cc(F)c1)c1ccc2c(c1)OCC1NCCC21 (racemic) [Example 105, 7-[(3,5-difluorophenyl)sulfonyl]-1,2,3,3a,4,9b-hexahydrochromeno[3,4-b]pyrrole] | – |
| < 500 nM | [O-][S+](c1ccccc1)c1ccc2c(c1)OCC1NCCC21 (racemic) [Example 106, 7-(phenylsulfinyl)-1,2,3,3a,4,9b-hexahydrochromeno[3,4-b]pyrrole] | – |
| < 500 nM | CC(C)Oc1cccc(S(=O)(=O)c2ccc3c(c2)OCC2NCCC32)c1 (racemic) [Example 107, 7-{[3-(propan-2-yloxy)phenyl]sulfonyl}-1,2,3,3a,4,9b-hexahydrochromeno[3,4-b]pyrrole] | – |
| < 500 nM | COc1cc(F)cc(S(=O)(=O)c2ccc3c(c2)OCC2NCCC32)c1 (racemic) [Example 109, 7-[(3-fluoro-5-methoxyphenyl)sulfonyl]-1,2,3,3a,4,9b-hexahydrochromeno[3,4-b]pyrrole] | – |
| < 500 nM | O=S(=O)(c1cccc(F)c1)c1ccc2c(c1)OCC1NCCC21 (single isomer, unassigned) [Example 1, 7-[(3-fluorophenyl)sulfonyl]-1,2,3,3a,4,9b-hexahydrochromeno[3,4-b]pyrrole] | – |
| < 500 nM | O=S(=O)(c1cccc(Cl)c1)c1ccc2c(c1)OCC1NCCC21 (single isomer, unassigned) [Example 2, 7-[(3-chlorophenyl)sulfonyl]-1,2,3,3a,4,9b-hexahydrochromeno[3,4-b]pyrrole] | – |
| < 500 nM | O=S(=O)(c1cc(Cl)cc(Cl)c1)c1ccc2c(c1)OCC1NCCC21 (single isomer, unassigned) [Example 3, 7-[(3,5-dichlorophenyl)sulfonyl]-1,2,3,3a,4,9b-hexahydrochromeno[3,4-b]pyrrole] | – |
| < 500 nM | O=S(=O)(c1ccc(F)cc1)c1ccc2c(c1)OCC1NCCC21 (single isomer, unassigned) [Example 4, 7-[(4-fluorophenyl)sulfonyl]-1,2,3,3a,4,9b-hexahydrochromeno[3,4-b]pyrrole] | – |
| < 500 nM | O=S(=O)(c1cc(F)cc(Cl)c1)c1ccc2c(c1)OCC1NCCC21 (single isomer, unassigned) [Example 6, 7-[(3-chloro-5-fluorophenyl)sulfonyl]-1,2,3,3a,4,9b-hexahydrochromeno[3,4-b]pyrrole] | – |
| < 500 nM | O=S(=O)(c1cccc(OC(F)(F)F)c1)c1ccc2c(c1)OCC1NCCC21 (single isomer, unassigned) [Example 7, 7-{[3-(trifluoromethoxy)phenyl]sulfonyl}-1,2,3,3a,4,9b-hexahydrochromeno[3,4-b]pyrrole] | – |
| < 500 nM | O=S(=O)(c1cccc(C(F)(F)F)c1)c1ccc2c(c1)OCC1NCCC21 (single isomer, unassigned) [Example 8, 7-{[3-(trifluoromethyl)phenyl]sulfonyl}-1,2,3,3a,4,9b-hexahydrochromeno[3,4-b]pyrrole] | – |
| < 500 nM | CC(C)Oc1cccc(S(=O)(=O)c2ccc3c(c2)OCC2NCCC32)c1 (single isomer, unassigned) [Example 9, 7-{[3-(propan-2-yloxy)phenyl]sulfonyl}-1,2,3,3a,4,9b-hexahydrochromeno[3,4-b]pyrrole] | – |
| < 500 nM | O=S(=O)(c1cccc(F)c1)c1ccc2c(c1)OCC1NCCC21 (single isomer, unassigned) [Example 10, 7-[(3-fluorophenyl)sulfonyl]-1,2,3,3a,4,9b-hexahydrochromeno[3,4-b]pyrrole] | – |
| < 500 nM | O=S(=O)(c1cccc(Cl)c1)c1ccc2c(c1)OCC1NCCC21 (single isomer, unassigned) [Example 11, 7-[(3-chlorophenyl)sulfonyl]-1,2,3,3a,4,9b-hexahydrochromeno[3,4-b]pyrrole] | – |
| < 500 nM | O=S(=O)(c1cc(Cl)cc(Cl)c1)c1ccc2c(c1)OCC1NCCC21 (single isomer, unassigned) [Example 12, 7-[(3,5-dichlorophenyl)sulfonyl]-1,2,3,3a,4,9b-hexahydrochromeno[3,4-b]pyrrole] | – |
